Each molecule was assayed on HOP-62 (assay: NCI60 five-dose screen, Non-small Cell Lung Cancer). Conditions: Homo sapiens; HOP-62, Non-small Cell Lung Cancer; five-dose screen; read-out: GI50.
Type: cell-based

Row | Compound | GI50 [µM]
1 | CCC12C=CCN3CCC4(c5cc(NC(=O)CN6CCN(C(c7ccc(F)cc7)c7ccc(F)cc7)CC6)c(OC)cc5N(C)C4C(O)(C(=O)OC)C1OC(C)=O)C32 (stereo not drawn) [Compound 20] | 89.1

Each molecule was assayed on HOP-92 (assay: NCI60 five-dose screen, Non-small Cell Lung Cancer). Conditions: Homo sapiens; HOP-92, Non-small Cell Lung Cancer; five-dose screen; read-out: GI50.
Type: cell-based

Row | Compound | GI50 [µM]
2 | CCC12C=CCN3CCC4(c5cc(NC(=O)CN6CCN(C(c7ccc(F)cc7)c7ccc(F)cc7)CC6)c(OC)cc5N(C)C4C(O)(C(=O)OC)C1OC(C)=O)C32 (stereo not drawn) [Compound 20] | 5.01

These molecules were tested on NCI-H522 (assay: NCI60 five-dose screen, Non-small Cell Lung Cancer). Conditions: Homo sapiens; NCI-H522, Non-small Cell Lung Cancer; five-dose screen; read-out: GI50.
Type: cell-based

Row | Compound | GI50 [µM]
3 | CCC12C=CCN3CCC4(c5cc(NC(=O)CN6CCN(C(c7ccc(F)cc7)c7ccc(F)cc7)CC6)c(OC)cc5N(C)C4C(O)(C(=O)OC)C1OC(C)=O)C32 (stereo not drawn) [Compound 20] | 10.2

Each molecule was assayed on UACC-257 (assay: NCI60 five-dose screen, Melanoma). Conditions: Homo sapiens; UACC-257, Melanoma; five-dose screen; read-out: GI50.
Type: cell-based

Row | Compound | GI50 [µM]
4 | CCC12C=CCN3CCC4(c5cc(NC(=O)CN6CCN(C(c7ccc(F)cc7)c7ccc(F)cc7)CC6)c(OC)cc5N(C)C4C(O)(C(=O)OC)C1OC(C)=O)C32 (stereo not drawn) [Compound 20] | 5.25

Each molecule was assayed on MOLT-4 (assay: NCI60 five-dose screen, Leukemia). Conditions: Homo sapiens; MOLT-4, Leukemia; five-dose screen; read-out: GI50.
Type: cell-based

Row | Compound | GI50 [µM]
5 | CCC12C=CCN3CCC4(c5cc(NC(=O)CN6CCN(C(c7ccc(F)cc7)c7ccc(F)cc7)CC6)c(OC)cc5N(C)C4C(O)(C(=O)OC)C1OC(C)=O)C32 (stereo not drawn) [Compound 20] | 2.14

Each molecule was assayed on CAKI-1 (assay: NCI60 five-dose screen, Renal Cancer). Conditions: Homo sapiens; CAKI-1, Renal Cancer; five-dose screen; read-out: GI50.
Type: cell-based

Row | Compound | GI50 [µM]
6 | CCC12C=CCN3CCC4(c5cc(NC(=O)CN6CCN(C(c7ccc(F)cc7)c7ccc(F)cc7)CC6)c(OC)cc5N(C)C4C(O)(C(=O)OC)C1OC(C)=O)C32 (stereo not drawn) [Compound 20] | 3.16

Each molecule was assayed on MCF7 (assay: NCI60 five-dose screen, Breast Cancer). Conditions: Homo sapiens; MCF7, Breast Cancer; five-dose screen; read-out: GI50.
Type: cell-based

Row | Compound | GI50 [µM]
7 | CCC12C=CCN3CCC4(c5cc(NC(=O)CN6CCN(C(c7ccc(F)cc7)c7ccc(F)cc7)CC6)c(OC)cc5N(C)C4C(O)(C(=O)OC)C1OC(C)=O)C32 (stereo not drawn) [Compound 20] | 2.95

These molecules were tested on HT29 (assay: NCI60 five-dose screen, Colon Cancer). Conditions: Homo sapiens, HT-29; HT29, Colon Cancer; five-dose screen; read-out: GI50.
Type: cell-based

Row | Compound | GI50 [µM]
8 | CCC12C=CCN3CCC4(c5cc(NC(=O)CN6CCN(C(c7ccc(F)cc7)c7ccc(F)cc7)CC6)c(OC)cc5N(C)C4C(O)(C(=O)OC)C1OC(C)=O)C32 (stereo not drawn) [Compound 20] | 2.88

The molecules below were run on RXF 393 (assay: NCI60 five-dose screen, Renal Cancer). Conditions: Homo sapiens, RXF 393, Renal Cancer.
Type: cell-based

Row | Compound | GI50 [µM]
9 | CCC12C=CCN3CCC4(c5cc(NC(=O)CN6CCN(C(c7ccc(F)cc7)c7ccc(F)cc7)CC6)c(OC)cc5N(C)C4C(O)(C(=O)OC)C1OC(C)=O)C32 (stereo not drawn) [Compound 20] | 2.69

These molecules were tested on SNB-75 (assay: NCI60 five-dose screen, CNS Cancer). Conditions: Homo sapiens; SNB-75, CNS Cancer; five-dose screen; read-out: GI50.
Type: cell-based

Row | Compound | GI50 [µM]
10 | CCC12C=CCN3CCC4(c5cc(NC(=O)CN6CCN(C(c7ccc(F)cc7)c7ccc(F)cc7)CC6)c(OC)cc5N(C)C4C(O)(C(=O)OC)C1OC(C)=O)C32 (stereo not drawn) [Compound 20] | 1.82

These molecules were tested on KM12 (assay: NCI60 five-dose screen, Colon Cancer). Conditions: Homo sapiens; KM12, Colon Cancer; five-dose screen; read-out: GI50.
Type: cell-based

Row | Compound | GI50 [µM]
11 | CCC12C=CCN3CCC4(c5cc(NC(=O)CN6CCN(C(c7ccc(F)cc7)c7ccc(F)cc7)CC6)c(OC)cc5N(C)C4C(O)(C(=O)OC)C1OC(C)=O)C32 (stereo not drawn) [Compound 20] | 3.98

These molecules were tested on SK-MEL-28 (assay: NCI60 five-dose screen, Melanoma). Conditions: Homo sapiens; SK-MEL-28, Melanoma; five-dose screen; read-out: GI50.
Type: cell-based

Row | Compound | GI50 [µM]
12 | CCC12C=CCN3CCC4(c5cc(NC(=O)CN6CCN(C(c7ccc(F)cc7)c7ccc(F)cc7)CC6)c(OC)cc5N(C)C4C(O)(C(=O)OC)C1OC(C)=O)C32 (stereo not drawn) [Compound 20] | 12.3

The molecules below were run on NCI-H322M (assay: NCI60 five-dose screen, Non-small Cell Lung Cancer). Conditions: Homo sapiens, Non-small Cell Lung Cancer, five-dose screen, read-out: GI50.
Type: cell-based

Row | Compound | GI50 [µM]
13 | CCC12C=CCN3CCC4(c5cc(NC(=O)CN6CCN(C(c7ccc(F)cc7)c7ccc(F)cc7)CC6)c(OC)cc5N(C)C4C(O)(C(=O)OC)C1OC(C)=O)C32 (stereo not drawn) [Compound 20] | 12

These molecules were tested on SK-MEL-2 (assay: NCI60 five-dose screen, Melanoma). Conditions: Homo sapiens; SK-MEL-2, Melanoma; five-dose screen; read-out: GI50.
Type: cell-based

Row | Compound | GI50 [µM]
14 | CCC12C=CCN3CCC4(c5cc(NC(=O)CN6CCN(C(c7ccc(F)cc7)c7ccc(F)cc7)CC6)c(OC)cc5N(C)C4C(O)(C(=O)OC)C1OC(C)=O)C32 (stereo not drawn) [Compound 20] | 3.02

These molecules were tested on EKVX (assay: NCI60 five-dose screen, Non-small Cell Lung Cancer). Conditions: Homo sapiens, Non-small Cell Lung Cancer, five-dose screen, read-out: GI50.
Type: cell-based

Row | Compound | GI50 [µM]
15 | CCC12C=CCN3CCC4(c5cc(NC(=O)CN6CCN(C(c7ccc(F)cc7)c7ccc(F)cc7)CC6)c(OC)cc5N(C)C4C(O)(C(=O)OC)C1OC(C)=O)C32 (stereo not drawn) [Compound 20] | 4.07

What follows are molecules tested on OVCAR-8 (assay: NCI60 five-dose screen, Ovarian Cancer). Conditions: Homo sapiens; OVCAR-8, Ovarian Cancer; five-dose screen; read-out: GI50.
Type: cell-based

Row | Compound | GI50 [µM]
16 | CCC12C=CCN3CCC4(c5cc(NC(=O)CN6CCN(C(c7ccc(F)cc7)c7ccc(F)cc7)CC6)c(OC)cc5N(C)C4C(O)(C(=O)OC)C1OC(C)=O)C32 (stereo not drawn) [Compound 20] | 7.59

The molecules below were run on RPMI-8226 (assay: NCI60 five-dose screen, Leukemia). Conditions: Homo sapiens; RPMI-8226, Leukemia; five-dose screen; read-out: GI50.
Type: cell-based

Row | Compound | GI50 [µM]
17 | CCC12C=CCN3CCC4(c5cc(NC(=O)CN6CCN(C(c7ccc(F)cc7)c7ccc(F)cc7)CC6)c(OC)cc5N(C)C4C(O)(C(=O)OC)C1OC(C)=O)C32 (stereo not drawn) [Compound 20] | 1.91

The molecules below were run on CCRF-CEM (assay: NCI60 five-dose screen, Leukemia). Conditions: Homo sapiens, Leukemia, five-dose screen, read-out: GI50.
Type: cell-based

Row | Compound | GI50 [µM]
18 | CCC12C=CCN3CCC4(c5cc(NC(=O)CN6CCN(C(c7ccc(F)cc7)c7ccc(F)cc7)CC6)c(OC)cc5N(C)C4C(O)(C(=O)OC)C1OC(C)=O)C32 (stereo not drawn) [Compound 20] | 2.88

These molecules were tested on SF-539 (assay: NCI60 five-dose screen, CNS Cancer). Conditions: Homo sapiens; SF-539, CNS Cancer; five-dose screen; read-out: GI50.
Type: cell-based

Row | Compound | GI50 [µM]
19 | CCC12C=CCN3CCC4(c5cc(NC(=O)CN6CCN(C(c7ccc(F)cc7)c7ccc(F)cc7)CC6)c(OC)cc5N(C)C4C(O)(C(=O)OC)C1OC(C)=O)C32 (stereo not drawn) [Compound 20] | 4.07

The molecules below were run on SNB-19 (assay: NCI60 five-dose screen, CNS Cancer). Conditions: Homo sapiens; SNB-19, CNS Cancer; five-dose screen; read-out: GI50.
Type: cell-based

Row | Compound | GI50 [µM]
20 | CCC12C=CCN3CCC4(c5cc(NC(=O)CN6CCN(C(c7ccc(F)cc7)c7ccc(F)cc7)CC6)c(OC)cc5N(C)C4C(O)(C(=O)OC)C1OC(C)=O)C32 (stereo not drawn) [Compound 20] | 5.89

These molecules were tested on NCI-H226 (assay: NCI60 five-dose screen, Non-small Cell Lung Cancer). Conditions: Homo sapiens; NCI-H226, Non-small Cell Lung Cancer; five-dose screen; read-out: GI50.
Type: cell-based

Row | Compound | GI50 [µM]
21 | CCC12C=CCN3CCC4(c5cc(NC(=O)CN6CCN(C(c7ccc(F)cc7)c7ccc(F)cc7)CC6)c(OC)cc5N(C)C4C(O)(C(=O)OC)C1OC(C)=O)C32 (stereo not drawn) [Compound 20] | 6.31

From article PMC11277489, “Novel Piperazine Derivatives of Vindoline as Anticancer Agents” (International Journal of Molecular Sciences, 2024)
